Experimental data taken from patent publication US20240059703A1 (AMGEN INC., priority 2021, published 2024).
pIC50: −log10 of the molar value. Where two headings read alike, the source gives them in different places.

Tests used:
[1] = test system: MIA PaCa-2 (human pancreatic carcinoma) cells; experiment: Cell Viability Assay (CellTiter-Glo), MIA PaCa-2; format: cell-based
Procedure: Serially-diluted compound or DMSO was added to the cells, and plates were incubated at 37° C., 5% CO2 for 72 h. Cell viability was measured using a CellTiter-Glo® Luminescent Cell Viability Assay kit (Promega) according to the manufacturer's protocol. The luminescence signal of treated samples was normalized to DMSO control, and data were analyzed using a 4-parameter logistic model to calculate IC50 values.

[2] = test system: A549 (human lung carcinoma) cells; experiment: Cell Viability Assay (CellTiter-Glo), A549; format: cell-based
How it was run: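 Cells grown in RPMI 1640 with 10% FBS were seeded at 1.67E+04 cells/mL and left overnight at 37° C., 5% CO2. They were then exposed to serially diluted compound for 72 h, after which CellTiter-Glo luminescence was read, normalized to DMSO, and fitted to a 4-parameter logistic model for IC50.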

KRAS G12C = KRAS G12C (Homo sapiens (Human), UniProt P01116, C118A/G12C); experiment: 2 h coupled exchange assay; format: biochemical
Procedure: The term “2 h coupled exchange assay” or “20 h coupled exchange assay” as used herein refers to the assay described in the Section entitled “BIOLOGICAL EVALUATION.”

[3] = Avg 2 h Coupled exchange IC50, 2 h compound pre-incubation
[4] = Avg 2 h Coupled exchange IC50, 2 h compound pre-incubation, SOS-mediated nucleotide exchange

Chain of KRAS G12C (P01116 other isoform, or with tags, fused parts or gaps G12C/C118A): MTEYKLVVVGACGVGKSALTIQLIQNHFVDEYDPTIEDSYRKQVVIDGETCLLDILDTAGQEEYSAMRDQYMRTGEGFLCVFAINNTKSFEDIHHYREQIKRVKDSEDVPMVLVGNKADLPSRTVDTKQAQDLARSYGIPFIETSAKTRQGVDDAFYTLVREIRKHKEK

| Compound | pIC50 ([1]; Homo sapiens, MIA PaCa-2, 72 h) | pIC50 ([2]; Homo sapiens, A549, 72 h) | pIC50 (KRAS G12C; [3]) | pIC50 ([1]; 72 h) | pIC50 ([2]; 72 h) | pIC50 (KRAS G12C; read-out: Avg 2 h Coupled exchange IC50, 2 h compound pre-incubation) | pIC50 (KRAS G12C; [4]) |
| --- | --- | --- | --- | --- | --- | --- | --- |
| C=CC(=O)N1CC2(CCN(c3nc4cc(-c5scnc5C)ccc4c(-c4ccccc4O)c3C#N)C2)C1 [Example 20-20, 4-(2-hydroxyphenyl)-7-(4-methyl-1,3-thiazol-5-yl)-2-(2-(2-propenoyl)-2,6-diazaspiro[3.4]octan-6-yl)-3-quinolinecarbonitrile] | 5.76 | 5.16 | 6.79 | – | – | – | – |
| C=CC(=O)N1CC2(CCN(c3nc4c(c(-c5c(C)ccc6cnn(C)c56)c3C)CCN(C3(C)COC3)C4)C2)C1 (atropisomer, axis not shown; (P)) [Example 36-3, (P)-1-(6-(4-(1,6-dimethyl-1H-indazol-7-yl)-3-methyl-7-(3-methyl-3-oxetanyl)-5,6,7,8-tetrahydro-1,7-naphthyridin-2-yl)-2,6-diazaspiro[3.4]octan-2-yl)-2-propen-1-one] | – | – | – | 4.96 | 4.73 | 4.19 | – |
| C=CC(=O)N1CC2(CCN(c3nc4c(c(-c5cc(O)cc6ccccc56)c3F)COC(C)(C)C4)C2)C1 (single isomer, unassigned) [Example 14-70, (P)-1-(6-(3-fluoro-4-(3-hydroxy-1-naphthalenyl)-7,7-dimethyl-7,8-dihydro-5H-pyrano[4,3-b]pyridin-2-yl)-2,6-diazaspiro[3.4]octan-2-yl)-2-propen-1-one] | 7.09 | < 5.30 | 7.17 | – | – | – | – |
| C=CC(=O)N1CC2(CCN(c3nc4c(c(-c5ccc(F)cc5)c3C#N)CCC(c3scnc3C)=C4)C2)C1 [Example 23-30, 4-(4-fluorophenyl)-7-(4-methyl-1,3-thiazol-5-yl)-2-(2-(2-propenoyl)-2,6-diazaspiro[3.4]octan-6-yl)-5,6-dihydro-3-quinolinecarbonitrile] | 5.71 | 5.08 | 6.88 | – | – | – | – |
| C=CC(=O)N1CC2(CCN(c3nc4c(c(-c5cc(O)ccc5C)c3C#N)C[C@H]3C[C@@H]4C3(C)C)C2)C1 [Example 2-67, (1R,9R)-6-(5-hydroxy-2-methylphenyl)-10,10-dimethyl-4-(2-(2-propenoyl)-2,6-diazaspiro[3.4]octan-6-yl)-3-azatricyclo[7.1.1.0^2,7]undeca-2,4,6-triene-5-carbonitrile] | 6.42 | < 5.30 | – | – | – | – | 7.42 |
| C=CC(=O)N1CC2(CCN(c3nc4c(c(-c5c(C)ccc6cnn(C)c56)c3C#N)COC(C)(C)C4)C2)C1 (single isomer, unassigned) [Example 13-60, (P)-4-(1,6-dimethyl-1H-indazol-7-yl)-7,7-dimethyl-2-(2-(2-propenoyl)-2,6-diazaspiro[3.4]octan-6-yl)-7,8-dihydro-5H-pyrano[4,3-b]pyridine-3-carbonitrile] | 6.84 | < 5.30 | – | – | – | – | 7.20 |
| C=CC(=O)N1CC2(CCN(c3nc4c(c(-c5cc(O)ccc5Cl)c3C#N)CCN(c3scnc3C)C4)C2)C1 (single isomer, unassigned) [Example 21-24, (P)-4-(2-chloro-5-hydroxyphenyl)-7-(4-methyl-1,3-thiazol-5-yl)-2-(2-(2-propenoyl)-2,6-diazaspiro[3.4]octan-6-yl)-5,6,7,8-tetrahydro-1,7-naphthyridine-3-carbonitrile] | – | – | 7.74 | 6.53 | < 5.30 | – | – |
| C=CC(=O)N1CC2(CCN(c3nc4c(c(-c5ccccc5C)c3C#N)CC[C@H](c3scnc3C)C4)C2)C1 (single isomer, unassigned) [Example 23-6] | – | – | 6.89 | 5.47 | 4.89 | – | – |
